These results are taken from patent US8431597B2, “Benzimidazole derivatives” (Pfizer Inc., priority 2007, dated 2013).

SMILES strings stand for the structures. Structures can show the parent of a compound that is named as a salt.

T1 sequence (P56726 33-793): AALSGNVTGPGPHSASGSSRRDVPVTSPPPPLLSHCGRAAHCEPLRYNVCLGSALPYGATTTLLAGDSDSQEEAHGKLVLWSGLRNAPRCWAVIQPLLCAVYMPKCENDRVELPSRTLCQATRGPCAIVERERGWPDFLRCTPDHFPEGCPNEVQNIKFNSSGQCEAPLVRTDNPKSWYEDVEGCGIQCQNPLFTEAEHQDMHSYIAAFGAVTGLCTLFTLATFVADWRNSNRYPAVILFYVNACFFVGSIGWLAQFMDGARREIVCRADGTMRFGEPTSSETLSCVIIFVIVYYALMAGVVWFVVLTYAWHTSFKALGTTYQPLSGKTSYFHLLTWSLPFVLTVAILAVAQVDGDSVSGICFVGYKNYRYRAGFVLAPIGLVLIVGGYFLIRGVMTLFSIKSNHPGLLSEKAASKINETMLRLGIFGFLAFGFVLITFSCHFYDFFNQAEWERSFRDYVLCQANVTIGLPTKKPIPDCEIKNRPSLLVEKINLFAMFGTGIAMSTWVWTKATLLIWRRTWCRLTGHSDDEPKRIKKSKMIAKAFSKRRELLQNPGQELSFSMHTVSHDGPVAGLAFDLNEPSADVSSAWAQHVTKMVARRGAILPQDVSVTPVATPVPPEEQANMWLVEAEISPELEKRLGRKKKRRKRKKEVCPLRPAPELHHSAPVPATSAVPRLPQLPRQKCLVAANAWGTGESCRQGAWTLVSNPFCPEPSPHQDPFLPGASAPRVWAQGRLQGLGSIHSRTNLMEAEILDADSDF

The first experiment has as its target T1, Smoothened (SMO) (Mus musculus, UniProt P56726).
T1 construct: C3H10T1/2 cells (ATCC #CCL-226) were split and seeded; endogenous in cells; host or cells: C3H10T1/2 (ATCC #CCL-226)
Description: Smoothened (SMO)/Sonic Hedgehog (SHh) Transient Transcriptional Activation Assay (Gli-luciferase reporter in C3H10T1/2 cells). The class given is cell-based, murine. The conditions noted are these: 2 μM compound; transfected C3H10T1/2 cells, recombinant human SHh 250 ng/mL, 20 hours, luciferase readout; 2 µM. The method in brief: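 C3H10T1/2 cells transiently transfected with a murine Gli-responsive firefly luciferase reporter plus pEGFP were serum-starved 20 h in 0.5% calf serum. Compound (2 μM to 2 nM final) was added with recombinant human SHh at 250 ng/mL final for 20 h at 37 °C. Read-out was Dual-Glo luminescence.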
(Reporter assays use an easily measured gene product as a stand-in for the process of interest.)
As for `O=C(N[C@@H]1CN[C@H](c2nc3ccccc3[nH]2)C1)c1ccc2c(c1)OCCO2` [Example 11, N-[(3S,5S)-5-(1H-benzimidazol-2-yl)pyrrolidin-3-yl]-2,3-dihydro-1,4-benzodioxine-6-carboxamide], the “SMO CELL % INHIBITION @ 2 μM” value was 110.10%.

Staying with this experiment, now noted: C3H 10T1/2, 2 μM compound; transfected C3H10T1/2 cells, recombinant human SHh 250 ng/mL, 20 hours, luciferase readout; read-out: SMO CELL % INHIBITION @ 2 μM.
As a reminder, the inhibition is the relative decrease from the control value, in per cent. As to `COc1ccc2nc([C@@H]3C[C@H](NC(=O)Nc4ccc(Cl)c(C(F)(F)F)c4)CN3)[nH]c2c1` [Example 20, 1-[4-chloro-3-(trifluoromethyl)phenyl]-3-[(3S,5S)-5-(6-methoxy-1H-benzimidazol-2-yl)pyrrolidin-3-yl]urea], the inhibition at 2 µM came out at 63%.
On the same count and under the same terms, the figure for `COc1ccc(NC(=O)N[C@@H]2CCN(C)[C@@H](c3nc4cc(C#N)ccc4[nH]3)C2)cn1` [Example 134, 1-[(2R,4R)-2-(5-cyano-1H-benzimidazol-2-yl)-1-methylpiperidin-4-yl]-3-(6-methoxypyridin-3-yl)urea hydrochloride] is 105%; for `CN1CC[C@H](NC(=O)c2ccc3c(c2)OCCO3)C[C@@H]1c1nc2ccccc2[nH]1` [Example 94, N-[(2R,4S)-2-(1H-benzimidazol-2-yl)-1-methylpiperidin-4-yl]-2,3-dihydro-1,4-benzodioxine-6-carboxamide hydrochloride] it is 79.7%; for `Cc1nc(C(F)(F)F)ccc1C(=O)N[C@@H]1CCN(C)[C@@H](c2nc3ccccc3[nH]2)C1` [Example 91, N-[(2R,4R)-2-(1H-benzimidazol-2-yl)-1-methylpiperidin-4-yl]-2-methyl-6-(trifluoromethyl)nicotinamide hydrochloride] it is 87.9%.
As to `CC(C)(C)OC(=O)N1C[C@@H](NC(=O)Nc2ccc(Cl)c(C(F)(F)F)c2)C[C@H]1c1nc2ccccc2[nH]1` [Example 8, tert-butyl (2S,4S)-2-(1H-benzimidazol-2-yl)-4-[({[4-chloro-3-(trifluoromethyl)phenyl]amino}carbonyl)amino]pyrrolidine-1-carboxylate], the inhibition at 2 µM was 57.1%.
Still for that read-out and setting: the same measure for `Cc1cc2nc([C@H]3C[C@H](NC(=O)Nc4ccc(C#N)cc4)CCN3C)[nH]c2cc1C` [Example 52, 1-(4-cyanophenyl)-3-[(2R,4R)-2-(5,6-dimethyl-1H-benzimidazol-2-yl)-1-methylpiperidin-4-yl]urea hydrochloride]: 105%; for `CN1C[C@@H](NC(=O)c2ccc3c(c2)OCCO3)C[C@H]1c1nc2ccccc2[nH]1` [Example 21, N-[(3S,5S)-5-(1H-benzimidazol-2-yl)-1-methylpyrrolidin-3-yl]-2,3-dihydro-1,4-benzodioxine-6-carboxamide]: 61.8%; for `CN1CC[C@@H](NC(=O)Cc2cc3ccccc3o2)C[C@@H]1c1nc2ccccc2[nH]1` [Example 104, N-[(2R,4R)-2-(1H-benzimidazol-2-yl)-1-methylpiperidin-4-yl]-2-(1-benzofuran-2-yl)acetamide trifluoroacetate]: 99.5%.
For the compound `Cc1ccc(NC(=O)N[C@@H]2CCN(C3CCC3)[C@@H](c3nc4cc(C)c(C)cc4[nH]3)C2)cn1` [Example 152, 1-[(2R,4R)-1-cycobutyl-2-(5,6-dimethy-1H-benzimidazol-2-yl)piperidin-4-yl]-3-(6-methylpyridin-3-yl)urea triflouroacetate], the inhibition at 2 µM came out at 106%.
Consider `Cc1cncc(NC(=O)N[C@@H]2CCN(C)[C@@H](c3nc4ccccc4[nH]3)C2)c1` [Example 69, 1-[(2R,4R)-2-(1H-benzimidazol-2-yl)-1-methylpiperidin-4-yl]-3-(5-methylpyridin-3-yl)urea hydrochloride], for which the inhibition at 2 µM worked out at 102%.
Still for that read-out and setting: the same measure for `Cc1ccc2[nH]c([C@H]3C[C@H](NC(=O)Nc4ccc(C(F)(F)F)nc4)CCN3C)nc2c1` [Example 65, 1-[(2R,4R)-1-methyl-2-(5-methyl-1H-benzimidazol-2-yl)piperidin-4-yl]-3-[6-(trifluoromethyl)pyridin-3-yl]urea hydrochloride]: 103%; for `CN1CC[C@@H](NC(=O)Cn2nc3ccccc3n2)C[C@@H]1c1nc2ccccc2[nH]1` [Example 106, N-[(2R,4R)-2-(1H-benzimidazol-2-yl)-1-methylpiperidin-4-yl]-2-(2H-1,2,3-benzotriazol-2-yl)acetamide trifluoroacetate]: 94.5%.
`CC(C)CCN1CC[C@@H](NC(=O)Nc2ccc(C#N)cc2)C[C@@H]1c1nc2ccccc2[nH]1` [Example 60, 1-[(2R,4R)-2-(1H-benzimidazol-2-yl)-1-(3-methylbutyl)piperidin-4-yl]-3-(4-cyanophenyl)urea]: the inhibition at 2 µM is 104%.
The same measure, in the same setting: the same measure for `O=C(Nc1ccc(Cl)c(C(F)(F)F)c1)N[C@@H]1CN[C@H](c2nc3ccc(F)cc3[nH]2)C1` [Example 13, 1-[4-chloro-3-(trifluoromethyl)phenyl]-3-[(3S,5S)-5-(6-fluoro-1H-benzimidazol-2-yl)pyrrolidin-3-yl]urea]: 84.2%; for `CN1CC[C@@H](NC(=O)Cc2cccc(F)c2)C[C@@H]1c1nc2ccccc2[nH]1` [Example 123, N-[(2R,4R)-2-(1H-benzimidazol-2-yl)-1-methylpiperidin-4-yl]-2-(3-fluorophenyl)acetamide trifluoroacetate]: 52.2%; for `COc1ccc(NC(=O)N[C@@H]2CCN(C)[C@@H](c3nc4ccc(Cl)cc4[nH]3)C2)cn1` [Example 133, 1-[(2R,4R)-2-(6-chloro-1H-benzimidazol-2-yl)-1-methylpiperidin-4-yl]-3-(6-methoxypyridin-3-yl)urea hydrochloride]: 108%.
In the case of `CN1CC[C@@H](NC(=O)Nc2cccc(C#N)c2)C[C@@H]1c1nc2ccccc2[nH]1` [Example 88, 1-[(2R,4R)-2-(1H-benzimidazol-2-yl)-1-methylpiperidin-4-yl]-3-(3-cyanophenyl)urea hydrochloride], the inhibition at 2 µM came to 92.1%.
`COc1ccc(C(=O)N[C@@H]2CCN(C)[C@@H](c3nc4ccccc4[nH]3)C2)cc1F` [Example 117, N-[(2R,4R)-2-(1H-benzimidazol-2-yl)-1-methylpiperidin-4-yl]-3-fluoro-4-methoxybenzamide trifluoroacetate]: the inhibition at 2 µM was determined as 65.4%.
The same measure, in the same setting: the same measure for `COc1ccc2nc([C@@H]3C[C@H](NC(=O)Nc4ccc(Cl)c(C(F)(F)F)c4)CN3C)[nH]c2c1` [Example 25, 1-[4-chloro-3-(trifluoromethyl)phenyl]-3-[(3S,5S)-5-(6-methoxy-1H-benzimidazol-2-yl)-1-methylpyrrolidin-3-yl]urea]: 105%; for `CN1CC[C@@H](NC(=O)c2ccc(N=[N+]=[N-])cc2)C[C@@H]1c1nc2ccccc2[nH]1` [Example 72, 4-azido-N-[(2R,4R)-2-(1H-benzimidazol-2-yl)-1-methylpiperidin-4-yl]benzamide]: 101%.
For the compound `Cc1ccc2[nH]c([C@H]3C[C@H](NC(=O)Nc4ccc(C)nc4)CCN3C)nc2c1` [Example 130, 1-[(2R,4R)-1-methyl-2-(5-methyl-1H-benzimidazol-2-yl)piperidin-4-yl]-3-(6-methylpyridin-3-yl)urea hydrochloride], the inhibition at 2 µM was 106%.
For `COc1ccc(C(=O)N[C@@H]2CCN(C)[C@@H](c3nc4ccccc4[nH]3)C2)cc1` [Example 111, N-[(2R,4R)-2-(1H-benzimidazol-2-yl)-1-methylpiperidin-4-yl]-4-methoxybenzamide trifluoroacetate], the inhibition at 2 µM stood at 83.2%.
Take `N#Cc1ccc(NC(=O)N[C@@H]2CCN(C3CCC3)[C@@H](c3nc4ccccc4[nH]3)C2)cc1` [Example 70, 1-[(2R,4R)-2-(1H-benzimidazol-2-yl)-1-cyclobutyl-piperidin-4-yl]-3-(4-cyanophenyl)urea]: the inhibition at 2 µM came to 101%.
The same measure, in the same setting: the figure for `CN1CC[C@@H](NC(=O)Nc2ccc(Cl)cc2)C[C@@H]1c1nc2ccccc2[nH]1` [Example 30, 1-[(2R,4R)-2-(1H-benzimidazol-2-yl)-1-methylpiperidin-4-yl]-3-(4-chlorophenyl)urea hydrochloride] is 108%.
In the case of `CN1CC[C@@H](NC(=O)Cc2ccc(Cl)s2)C[C@@H]1c1nc2ccccc2[nH]1` [Example 78, N-[(2R,4R)-2-(1H-benzimidazol-2-yl)-1-methylpiperidin-4-yl]-2-(5-chloro-2-thienyl)acetamide hydrochloride], the inhibition at 2 µM turned out to be 99.3%.
On the same count and under the same terms, the figure for `Cc1ccc(NC(=O)N[C@@H]2CCN(C3CCC3)[C@@H](c3nc4ccccc4[nH]3)C2)cn1` [Example 150, 1-[(2R,4R)-2-(1H-benzimidazol-2-yl)-1-cyclobutyl-piperidin-4-yl]-3-(6-methylpyridin-3-yl)urea triflouroacetate] is 106%.
Same read-out and setting: the same measure for `CN1CC[C@@H](NC(=O)NC2CCCC2)C[C@@H]1c1nc2ccccc2[nH]1` [Example 85, 1-[(2R,4R)-2-(1H-benzimidazol-2-yl)-1-methylpiperidin-4-yl]-3-cyclopentylurea hydrochloride]: 93.1%.
On to `CN1CC[C@@H](NC(=O)Nc2ccc(C#N)cc2)C[C@@H]1c1nc2cc(Cl)ccc2[nH]1` [Example 64, 1-[(2R,4R)-2-(5-chloro-1H-benzimidazol-2-yl)-1-methylpiperidin-4-yl]-3-(4-cyanophenyl)urea hydrochloride], for which the inhibition at 2 µM amounted to 103%.
On to `CC(C)CN1CC[C@@H](NC(=O)Nc2ccc(C#N)cc2)C[C@@H]1c1nc2ccccc2[nH]1` [Example 39, 1-[(2R,4R)-2-(1H-benzimidazol-2-yl)-1-isobutylpiperidin-4-yl]-3-(4-cyanophenyl)urea], for which the inhibition at 2 µM was found to be 106%.
